Measured values published in ChEMBL document CHEMBL1201862, “PubChem BioAssay data set” (2004).
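Compound exposure: 48 hours, 5 concentrations, 96-well plates. The concentration for 50% growth inhibition is given as GI50.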 Calls of active or inactive are those of the source. No stated cut-off is given here; in the data, active = GI50 up to about 1.1 µM and inactive = higher.

Experiments:
Test in all cases: NCI-60 cell line screen, 48 h
KM12 = system: KM12
NCI-H460 = system: NCI-H460
M14 = system: M14
MCF7 = system: MCF7
OVCAR-8 = system: OVCAR-8
SW-620 = system: SW-620
SK-MEL-28 = system: SK-MEL-28
COLO 205 = system: COLO 205
IGROV-1 = system: IGROV-1
UO-31 = system: UO-31
HOP-62 = system: HOP-62
BT-549 = system: BT-549
ACHN = system: ACHN
786-0 = system: 786-0
RPMI-8226 = system: RPMI-8226
LOX IMVI = system: LOX IMVI
SK-MEL-5 = system: SK-MEL-5
T47D = system: T47D
HL-60 = system: HL-60

SMILES	GI50 (KM12)	GI50 (NCI-H460)	GI50 (M14)	GI50 (MCF7)	GI50 (OVCAR-8)	GI50 (SW-620)	GI50 (SK-MEL-28)	GI50 (COLO 205)	GI50 (IGROV-1)	GI50 (UO-31)	GI50 (HOP-62)	GI50 (BT-549)	GI50 (ACHN)	GI50 (786-0)	GI50 (RPMI-8226)	GI50 (LOX IMVI)	GI50 (SK-MEL-5)	GI50 (T47D)	GI50 (HL-60)
O=[As](O)(O)c1ccc(Cc2ccc([As](=O)(O)O)cc2)cc1	1.91 µM (inactive)	0.91 µM (active)	1.06 µM (active)	0.284 µM (active)	0.358 µM (active)	0.27 µM (active)	1.32 µM (inactive)	0.617 µM (active)	0.692 µM (active)	1.24 µM (inactive)	1.31 µM (inactive)	1.18 µM (inactive)	1.03 µM (active)	0.356 µM (active)	0.284 µM (active)	0.336 µM (active)	0.632 µM (active)	0.312 µM (active)	1.09 µM (active)
COc1cc(N(C)C)ccc1C=c1c2ccccc2n2c1cc(-c1ccccc1)[n+]2C	0.17 µM (active)	0.294 µM (active)	0.411 µM (active)	0.302 µM (active)	0.163 µM (active)	0.276 µM (active)	0.802 µM (active)	0.151 µM (active)	–	0.493 µM (active)	0.275 µM (active)	0.34 µM (active)	0.29 µM (active)	0.197 µM (active)	0.151 µM (active)	0.308 µM (active)	0.637 µM (active)	0.266 µM (active)	0.149 µM (active)
N=C(N)Nc1ccc(-c2ccc(NC(=N)N)cc2)cc1	33.5 µM (inactive)	17.1 µM (inactive)	36.1 µM (inactive)	39.2 µM (inactive)	43.8 µM (inactive)	62.5 µM (inactive)	45.5 µM (inactive)	21.5 µM (inactive)	20.2 µM (inactive)	46.1 µM (inactive)	16.7 µM (inactive)	45.8 µM (inactive)	45.3 µM (inactive)	24 µM (inactive)	19.5 µM (inactive)	50.8 µM (inactive)	16.3 µM (inactive)	44.4 µM (inactive)	40.9 µM (inactive)
c1cc(-c2cscc2-c2ccsc2)cs1	14.8 µM (inactive)	43.9 µM (inactive)	31.3 µM (inactive)	30.5 µM (inactive)	–	57.9 µM (inactive)	98.4 µM (inactive)	> 100 µM (inactive)	34.5 µM (inactive)	72.9 µM (inactive)	26.5 µM (inactive)	37.8 µM (inactive)	> 100 µM (inactive)	72.1 µM (inactive)	34.9 µM (inactive)	37.6 µM (inactive)	31 µM (inactive)	69.7 µM (inactive)	30.4 µM (inactive)
O=C1C(=C(C(=O)c2ccccc2)C(=O)c2ccccc2)OC(c2ccccc2)=C1C(=O)c1ccccc1	5.5 µM (inactive)	3.02 µM (inactive)	7.41 µM (inactive)	1.85 µM (inactive)	4.15 µM (inactive)	–	13.9 µM (inactive)	12.8 µM (inactive)	0.164 µM (active)	6.79 µM (inactive)	3.03 µM (inactive)	3.01 µM (inactive)	4.88 µM (inactive)	3.51 µM (inactive)	5.56 µM (inactive)	1.77 µM (inactive)	7.14 µM (inactive)	12 µM (inactive)	6.84 µM (inactive)
COC1CC(C)([N+](=O)[O-])C(O)C(C)O1 (stereo not drawn)	> 100 µM (inactive)	> 100 µM (inactive)	> 100 µM (inactive)	> 100 µM (inactive)	> 100 µM (inactive)	> 100 µM (inactive)	> 100 µM (inactive)	> 100 µM (inactive)	> 100 µM (inactive)	> 100 µM (inactive)	> 100 µM (inactive)	91.6 µM (inactive)	> 100 µM (inactive)	> 100 µM (inactive)	> 100 µM (inactive)	> 100 µM (inactive)	> 100 µM (inactive)	> 100 µM (inactive)	> 100 µM (inactive)
CCCC(CC)c1c(O)c(O)c(C(CC)CCC)c(C(CC)CCC)c1C(CC)CCC (stereo not drawn)	> 10 µM (inactive)	> 10 µM (inactive)	> 10 µM (inactive)	> 10 µM (inactive)	> 10 µM (inactive)	> 10 µM (inactive)	> 10 µM (inactive)	> 10 µM (inactive)	> 10 µM (inactive)	> 10 µM (inactive)	> 10 µM (inactive)	> 10 µM (inactive)	> 10 µM (inactive)	> 10 µM (inactive)	> 10 µM (inactive)	> 10 µM (inactive)	> 10 µM (inactive)	> 10 µM (inactive)	> 10 µM (inactive)
O=C1OC(c2ccccc2)N/C1=C\c1ccc2c(c1)OCO2 (stereo not drawn)	46.7 µM (inactive)	> 100 µM (inactive)	> 74 µM (inactive)	> 100 µM (inactive)	43.5 µM (inactive)	> 88.1 µM (inactive)	87.5 µM (inactive)	> 100 µM (inactive)	48.6 µM (inactive)	> 100 µM (inactive)	> 56.8 µM (inactive)	> 100 µM (inactive)	> 100 µM (inactive)	> 100 µM (inactive)	25.2 µM (inactive)	53.3 µM (inactive)	> 55.8 µM (inactive)	> 100 µM (inactive)	0.219 µM (active)
COC(=O)C1(Cc2cccc(Cl)c2)CCCCCCN1C(=O)c1ccccc1 (stereo not drawn)	–	15.2 µM (inactive)	17.9 µM (inactive)	13.5 µM (inactive)	16.6 µM (inactive)	18.2 µM (inactive)	14.9 µM (inactive)	15.5 µM (inactive)	19.1 µM (inactive)	10.8 µM (inactive)	15.5 µM (inactive)	16.7 µM (inactive)	9.46 µM (inactive)	13.2 µM (inactive)	6.7 µM (inactive)	17.5 µM (inactive)	12.8 µM (inactive)	14.4 µM (inactive)	5.97 µM (inactive)
CCN(CC)C(=S)N/N=C/c1ccccn1	–	0.0143 µM (active)	0.0324 µM (active)	< 0.01 µM (active)	< 0.01 µM (active)	< 0.01 µM (active)	0.187 µM (active)	< 0.01 µM (active)	< 0.01 µM (active)	0.0415 µM (active)	< 0.01 µM (active)	0.37 µM (active)	< 0.0172 µM (active)	< 0.01 µM (active)	< 0.01 µM (active)	< 0.01 µM (active)	< 0.0174 µM (active)	< 0.01 µM (active)	< 0.0149 µM (active)
COC(=O)/C(C#N)=C(\Nc1ccccc1)N1CCOCC1	–	> 100 µM (inactive)	> 100 µM (inactive)	> 100 µM (inactive)	> 100 µM (inactive)	> 100 µM (inactive)	> 100 µM (inactive)	> 100 µM (inactive)	> 100 µM (inactive)	> 100 µM (inactive)	> 100 µM (inactive)	> 100 µM (inactive)	> 100 µM (inactive)	> 100 µM (inactive)	> 100 µM (inactive)	> 100 µM (inactive)	> 100 µM (inactive)	> 100 µM (inactive)	> 100 µM (inactive)
CCCC(=O)n1[nH]c(=O)n(C(C)(C)C)c1=O	> 100 µM (inactive)	> 100 µM (inactive)	> 100 µM (inactive)	> 100 µM (inactive)	> 100 µM (inactive)	> 100 µM (inactive)	> 100 µM (inactive)	> 100 µM (inactive)	> 100 µM (inactive)	> 100 µM (inactive)	> 100 µM (inactive)	> 100 µM (inactive)	> 100 µM (inactive)	> 100 µM (inactive)	> 100 µM (inactive)	> 100 µM (inactive)	> 100 µM (inactive)	> 100 µM (inactive)	> 100 µM (inactive)
COc1cc(Br)cc2cc(C3=CSC4=NCCN34)c(=O)oc12	20 µM (inactive)	19.9 µM (inactive)	22.2 µM (inactive)	18 µM (inactive)	17.8 µM (inactive)	25.3 µM (inactive)	29.5 µM (inactive)	20.7 µM (inactive)	17.6 µM (inactive)	19.3 µM (inactive)	19.3 µM (inactive)	22 µM (inactive)	28.3 µM (inactive)	18.4 µM (inactive)	22.7 µM (inactive)	18.2 µM (inactive)	20 µM (inactive)	17.5 µM (inactive)	29.4 µM (inactive)
CCOP(=O)(CN1CCNCCNCC1)OCC	> 100 µM (inactive)	> 100 µM (inactive)	> 100 µM (inactive)	> 100 µM (inactive)	> 100 µM (inactive)	> 100 µM (inactive)	> 100 µM (inactive)	> 100 µM (inactive)	> 100 µM (inactive)	> 100 µM (inactive)	> 100 µM (inactive)	> 100 µM (inactive)	> 100 µM (inactive)	> 100 µM (inactive)	> 100 µM (inactive)	> 100 µM (inactive)	> 100 µM (inactive)	> 100 µM (inactive)	92.7 µM (inactive)
Cc1c(O)ccc2c(O)c(NC(=O)c3ccc4c(c3)CCC(C)(C)O4)c(=O)oc12 [CYCLONOVOBIOCIC ACID]	> 100 µM (inactive)	> 100 µM (inactive)	–	> 100 µM (inactive)	> 100 µM (inactive)	> 100 µM (inactive)	> 100 µM (inactive)	> 100 µM (inactive)	> 100 µM (inactive)	> 100 µM (inactive)	> 100 µM (inactive)	> 100 µM (inactive)	> 100 µM (inactive)	> 100 µM (inactive)	> 100 µM (inactive)	> 100 µM (inactive)	> 100 µM (inactive)	> 100 µM (inactive)	> 100 µM (inactive)
